Where two headings read alike, the source gives them in different places. Marks after values point to notes of the source that are not given here.
Tested on: patients with chronic heart failure with reduced ejection fraction (LVEF ≤40%)
Conditions: for Cardiovascular death or hospitalization for heart failure, Hazard Ratio (95% CI) / Cardiovascular death, Hazard Ratio (95% CI) / Death from any cause, Hazard Ratio (95% CI) / Hospitalization for heart failure or an urgent heart failure visit, Hazard Ratio (95% CI) / Hospitalization for heart failure, Hazard Ratio (95% CI) / Primary composite outcome, Hazard Ratio (95% CI) / Urgent heart failure visit, Hazard Ratio (95% CI) / Worsening renal function (composite), Hazard Ratio (95% CI) / Total number of (first and recurrent) heart failure hospitalizations and cardiovascular death, rate ratio (95% CI) / HR (95% CI) for primary outcome of CV death or worsening HF: dapagliflozin vs placebo; for Total number of (first and recurrent) heart failure hospitalizations and cardiovascular death, rate ratio (95% CI): LWYY method
Excerpt: Eligibility requirements included an age of at least 18 years, New York Heart Association (NYHA) class II, III, or IV symptoms, and an ejection fraction of 40% or less. […] Patients with atrial fibrillation or atrial flutter on their baseline electrocardiogram were required to have a NT-proBNP level of at least 900 pg/mL, irrespective of history of heart failure hospitalization. Patients were required to receive standard drug and device therapy for heart failure including an angiotensin-converting enzyme (ACE) inhibitor, angiotensin receptor blocker (ARB), or sacubitril/valsartan; a beta-blocker, unless contraindicated or not tolerated, and a mineralocorticoid receptor (MR) […], if considered appropriate. Doses were required to be individually optimized, in accordance with the targets recommended in guidelines, and stable for at least 4 weeks (excepting diuretics, which could be dosed flexibly). Investigators were advised that patients with type 2 diabetes should continue to take their glucose-lowering therapies, but these could be adjusted as required. Specifically, the protocol stated that the dose of insulin, sulfonylurea treatment, or both, could be reduced to minimize the risk of hypoglycemia, for example in patients with a baseline hemoglobin A1C (HbA1c) level below 7%.
All the patients provided written informed consent and entered a 14-day enrollment period during which the trial inclusion and exclusion criteria were checked and baseline information gathered, including findings from clinical examination and laboratory measurements. […] Investigators used an interactive voice or web response system to obtain treatment assignment. Randomization was stratified based on a diagnosis of type 2 diabetes, defined as either an established diagnosis or a HbA1c level of 6.5% or greater (≥48 mmol/mol) confirmed in a central laboratory at screening. Patients were evaluated at 14 days and 60 days after randomization, with a focus on assessment of heart failure and volume status, adverse events, and checking renal function and potassium. Further study visits took place at 4 months and at 4-month intervals thereafter. The protocol required that study drug be permanently discontinued if pregnancy or diabetic ketoacidosis occurred.
The primary outcome was a composite of a first episode of worsening heart failure or death from cardiovascular causes. An episode of worsening heart failure was either an unplanned hospitalization for heart failure or an urgent heart failure visit requiring intravenous therapy.^14 The first of the secondary outcomes was the composite of heart failure hospitalization or cardiovascular death.
Outcomes were adjudicated by a clinical-end-points committee, blinded to treatment assignment, according to prespecified criteria.
Using a two-sided alpha of 5%, we calculated that 844 primary endpoints would provide a statistical power of 90% for the test of the hypothesis. With an expected annual event rate of 11% in the placebo treatment group, approximately 4500 patients were estimated to provide the required number of primary events, based on an anticipated recruitment period of 18 months and an average follow-up period of approximately 24 months. A closed testing procedure was used, including a prespecified hierarchical testing of the primary and secondary endpoints in the order specified above. Type I error was controlled at a two-sided 0.0499 alpha level for multiplicity across primary and secondary endpoints and taking account of one interim efficacy analysis.
Data from all randomly assigned patients were included in the analyses of the primary and secondary outcomes, according to the intention-to-treat principle. Baseline characteristics were summarized as means and standard deviations, medians and inter-quartile ranges, or percentages.

[1] = all patients (N = 2373), listed as dapagliflozin
[2] = all patients, listed as dapagliflozin

## CCOc1ccc(Cc2cc([C@@H]3O[C@H](CO)[C@@H](O)[C@H](O)[C@H]3O)ccc2Cl)cc1 [Dapagliflozin, dapagliflozin]
No T2DM (N = 1298)
  Cardiovascular death or hospitalization for heart failure, No. (%): 169 (13.0) No. (%)
  Cardiovascular death or hospitalization for heart failure, Subjects with Event/100 Patient-Yr: 9.1 Event/100 Patient-Yr
  Cardiovascular death, No. (%): 106 (8.2) No. (%)
  Cardiovascular death, Subjects with Event/100 Patient-Yr: 5.5 Event/100 Patient-Yr
  Death from any cause, No. (%): 133 (10.3) No. (%)
  Death from any cause, Subjects with Event/100 Patient-Yr: 6.9 Event/100 Patient-Yr
  Hospitalization for heart failure or an urgent heart failure visit, No. (%): 95 (7.3) No. (%)
  Hospitalization for heart failure or an urgent heart failure visit, Subjects with Event/100 Patient-Yr: 5.1 Event/100 Patient-Yr
  Hospitalization for heart failure, No. (%): 93 (7.2) No. (%)
  Hospitalization for heart failure, Subjects with Event/100 Patient-Yr: 5.0 Event/100 Patient-Yr
  Primary composite outcome, No. (%): 171 (13.2) No. (%)
  Primary composite outcome, Subjects with Event/100 Patient-Yr: 9.2 Event/100 Patient-Yr
  Total number of (first and recurrent) heart failure hospitalizations and cardiovascular death: 239
  Urgent heart failure visit, No. (%): 3 (0.2) No. (%)
  Urgent heart failure visit, Subjects with Event/100 Patient-Yr: 0.2 Event/100 Patient-Yr
  Worsening renal function (composite), No. (%): 10 (0.8) No. (%)
  Worsening renal function (composite), Subjects with Event/100 Patient-Yr: 0.5 Event/100 Patient-Yr
T2DM (N = 1075)
  Cardiovascular death or hospitalization for heart failure, No. (%): 213 (19.8) No. (%)
  Cardiovascular death or hospitalization for heart failure, Subjects with Event/100 Patient-Yr: 14.4 Event/100 Patient-Yr
  Cardiovascular death, No. (%): 121 (11.3) No. (%)
  Cardiovascular death, Subjects with Event/100 Patient-Yr: 7.7 Event/100 Patient-Yr
  Death from any cause, No. (%): 143 (13.3) No. (%)
  Death from any cause, Subjects with Event/100 Patient-Yr: 9.1 Event/100 Patient-Yr
  Hospitalization for heart failure or an urgent heart failure visit, No. (%): 142 (13.2) No. (%)
  Hospitalization for heart failure or an urgent heart failure visit, Subjects with Event/100 Patient-Yr: 9.6 Event/100 Patient-Yr
  Hospitalization for heart failure, No. (%): 138 (12.8) No. (%)
  Hospitalization for heart failure, Subjects with Event/100 Patient-Yr: 9.3 Event/100 Patient-Yr
  Primary composite outcome, No. (%): 215 (20.0) No. (%)
  Primary composite outcome, Subjects with Event/100 Patient-Yr: 14.6 Event/100 Patient-Yr
  Total number of (first and recurrent) heart failure hospitalizations and cardiovascular death: 328
  Urgent heart failure visit, No. (%): 7 (0.7) No. (%)
  Urgent heart failure visit, Subjects with Event/100 Patient-Yr: 0.4 Event/100 Patient-Yr
  Worsening renal function (composite), No. (%): 18 (1.7) No. (%)
  Worsening renal function (composite), Subjects with Event/100 Patient-Yr: 1.2 Event/100 Patient-Yr
All patients (N = 2373)
  Cardiovascular death or hospitalization for heart failure, Events/100 Patient-Yr: 11.4 Events/100 Patient-Yr
  Cardiovascular death or hospitalization for heart failure, No. (%): 382 (16.1) No. (%)
  Cardiovascular death, Events/100 Patient-Yr: 6.5 Events/100 Patient-Yr
  Cardiovascular death, No. (%): 227 (9.6) No. (%)
  Death from any cause, Events/100 Patient-Yr: 7.9 Events/100 Patient-Yr
  Death from any cause, No. (%): 276 (11.6) No. (%)
  Hospitalization for heart failure or an urgent heart failure visit, Events/100 Patient-Yr: 7.1 Events/100 Patient-Yr
  Hospitalization for heart failure or an urgent heart failure visit, No. (%): 237 (10.0) No. (%)
  Hospitalization for heart failure, Events/100 Patient-Yr: 6.9 Events/100 Patient-Yr
  Hospitalization for heart failure, No. (%): 231 (9.7) No. (%)
  Primary composite outcome, Events/100 Patient-Yr: 11.6 Events/100 Patient-Yr
  Total number of (first and recurrent) heart failure hospitalizations and cardiovascular death: 567
  Urgent heart failure visit, Events/100 Patient-Yr: 0.3 Events/100 Patient-Yr
  Urgent heart failure visit, No. (%): 10 (0.4) No. (%)
  Worsening renal function (composite), Events/100 Patient-Yr: 0.8 Events/100 Patient-Yr
  Worsening renal function (composite), No. (%): 28 (1.2) No. (%)
[1]
  Cardiovascular death or hospitalization for heart failure, No. (%): 382 No. (%)
  Cardiovascular death, No. (%): 227 No. (%)
  Hospitalization for heart failure, No. (%): 231 (9.7%) No. (%)
All patients, 10 mg once daily (N = 2373), median follow-up 18.2 months
  Primary composite outcome (urgent heart failure visit, hospitalization for heart failure or cardiovascular death), No. (%): 386 (16.3) No. (%)
All patients, dapagliflozin arm
  hospitalizations for heart failure, total first and recurrent: 340
No T2DM
  Cardiovascular death or hospitalization for heart failure, Hazard Ratio (95% CI): 0.73 (0.60-0.89)
  Cardiovascular death, Hazard Ratio (95% CI): 0.85 (0.66-1.10)
  Death from any cause, Hazard Ratio (95% CI): 0.88 (0.70-1.12)
  Hospitalization for heart failure or an urgent heart failure visit, Hazard Ratio (95% CI): 0.62 (0.48-0.80)
  Hospitalization for heart failure, Hazard Ratio (95% CI): 0.63 (0.48-0.81)
  Primary composite outcome, Hazard Ratio (95% CI): 0.73 (0.60 to 0.88)
  Urgent heart failure visit, Hazard Ratio (95% CI): 0.25 (0.07-0.89)
  Worsening renal function (composite), Hazard Ratio (95% CI): 0.67 (0.30-1.49)
  Total number of (first and recurrent) heart failure hospitalizations and cardiovascular death, rate ratio (95% CI): 0.73 (0.59, 0.91)
T2DM
  Cardiovascular death or hospitalization for heart failure, Hazard Ratio (95% CI): 0.75 (0.63-0.90)
  Cardiovascular death, Hazard Ratio (95% CI): 0.79 (0.63-1.01)
  Death from any cause, Hazard Ratio (95% CI): 0.78 (0.63-0.97)
  Hospitalization for heart failure or an urgent heart failure visit, Hazard Ratio (95% CI): 0.77 (0.61-0.95)
  Hospitalization for heart failure, Hazard Ratio (95% CI): 0.76 (0.61-0.95)
  Primary composite outcome, Hazard Ratio (95% CI): 0.75 (0.63 to 0.90)
  Urgent heart failure visit, Hazard Ratio (95% CI): 0.62 (0.24-1.59)
  Worsening renal function (composite), Hazard Ratio (95% CI): 0.73 (0.39-1.34)
  Total number of (first and recurrent) heart failure hospitalizations and cardiovascular death, rate ratio (95% CI): 0.77 (0.63, 0.94)
All patients
  Cardiovascular death or hospitalization for heart failure, Hazard Ratio (95% CI): 0.75 (0.65-0.85)
  Cardiovascular death, Hazard Ratio (95% CI): 0.82 (0.69-0.98)
  Death from any cause, Hazard Ratio (95% CI): 0.83 (0.71-0.97)
  Hospitalization for heart failure or an urgent heart failure visit, Hazard Ratio (95% CI): 0.70 (0.59-0.83)
  Hospitalization for heart failure, Hazard Ratio (95% CI): 0.70 (0.59-0.83)
  Primary composite outcome, Hazard Ratio (95% CI): 0.74 (0.65-0.85)
  Urgent heart failure visit, Hazard Ratio (95% CI): 0.43 (0.20-0.90)
  Worsening renal function (composite), Hazard Ratio (95% CI): 0.71 (0.44-1.16)
  Total number of (first and recurrent) heart failure hospitalizations and cardiovascular death, rate ratio (95% CI): 0.75 (0.65-0.88)‡
[2]
  Total number of (first and recurrent) heart failure hospitalizations and cardiovascular death, rate ratio (95% CI): 0.75
  Cardiovascular death or hospitalization for heart failure, Hazard Ratio (95% CI): 0.75
  Cardiovascular death, Hazard Ratio (95% CI): 0.82
  Death from any cause, Hazard Ratio (95% CI): 0.83
  Hospitalization for heart failure, Hazard Ratio (95% CI): 0.70
  Primary composite outcome, Hazard Ratio (95% CI): 0.74
  Worsening renal function (composite), Hazard Ratio (95% CI): 0.71
Highest tertile of baseline KCCQ-TSS (>87.5)
  HR (95% CI) for primary outcome of CV death or worsening HF: 0.62 (0.46-0.83)
Lowest tertile of baseline KCCQ-TSS (≤65.6)
  HR (95% CI) for primary outcome of CV death or worsening HF: 0.70 (0.57-0.86)
Middle tertile of baseline KCCQ-TSS (65.7-87.5)
  HR (95% CI) for primary outcome of CV death or worsening HF: 0.77 (0.61-0.98)
Over the duration of the trial
  numbers of patients who would need to have been treated to prevent one primary event: 21
Patients without diabetes, highest third of glycated hemoglobin (≥6.0%), dapagliflozin versus placebo
  hazard ratio for the primary outcome: 0.72 (0.52, 1.00)
Patients without diabetes, lowest third of glycated hemoglobin (≤5.6%), dapagliflozin versus placebo
  hazard ratio for the primary outcome: 0.74 (95% CI 0.53, 1.04)
Patients without diabetes, middle third of glycated hemoglobin (>5.6-<6.0%), dapagliflozin versus placebo
  hazard ratio for the primary outcome: 0.71 (0.48, 1.04)
Post hoc subgroup: patients not taking sacubitril-valsartan, dapagliflozin to placebo
  hazard ratio for the primary outcome: 0.74
Post hoc subgroup: patients taking sacubitril-valsartan at baseline, dapagliflozin to placebo
  hazard ratio for the primary outcome: 0.75

Reference: US11903955B2, “Methods of treating heart failure with reduced ejection fraction” (ASTRAZENECA AB, priority 2019, dated 2024)
